Measurements: ChEMBL document CHEMBL5338719, “Recent advance on pleiotropic cholinesterase inhibitors bearing amyloid modulation efficacy” (Eur J Med Chem, 2022)
Each block holds one compound with its values, some of them ahead of it.

Experiments:
Acetylcholinesterase [1] = target: T1, Acetylcholinesterase (Electrophorus electricus, UniProt O42275); experiment: Inhibition of electric eel AChE by Ellman's method
Beta-secretase 1 [2] = target: T2, Beta-secretase 1 (Homo sapiens, UniProt P56817); experiment: Inhibition of BACE1 (unknown origin) at 50 uM by FRET-based enzyme assay relative to control
T2 sequence (P56817 whole entry): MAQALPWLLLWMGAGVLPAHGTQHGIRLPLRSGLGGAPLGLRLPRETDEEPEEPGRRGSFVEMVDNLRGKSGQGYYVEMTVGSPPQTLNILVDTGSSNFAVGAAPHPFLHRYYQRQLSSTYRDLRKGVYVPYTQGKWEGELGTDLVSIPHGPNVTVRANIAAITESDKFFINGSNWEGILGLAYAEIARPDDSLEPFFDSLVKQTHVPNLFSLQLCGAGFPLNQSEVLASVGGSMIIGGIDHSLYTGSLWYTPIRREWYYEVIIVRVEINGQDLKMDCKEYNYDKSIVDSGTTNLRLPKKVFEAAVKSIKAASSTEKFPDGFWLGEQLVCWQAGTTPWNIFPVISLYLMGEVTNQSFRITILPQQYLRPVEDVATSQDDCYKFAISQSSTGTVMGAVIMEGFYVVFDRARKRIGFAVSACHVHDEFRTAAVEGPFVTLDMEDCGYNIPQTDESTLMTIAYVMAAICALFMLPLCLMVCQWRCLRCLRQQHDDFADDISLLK

[3] = target: T3, Amyloid-beta precursor protein (Homo sapiens, UniProt P05067); experiment: Inhibition of amyloid beta 42 (unknown origin) aggregation at 25 uM relative to control
T3 sequence (P05067 whole entry): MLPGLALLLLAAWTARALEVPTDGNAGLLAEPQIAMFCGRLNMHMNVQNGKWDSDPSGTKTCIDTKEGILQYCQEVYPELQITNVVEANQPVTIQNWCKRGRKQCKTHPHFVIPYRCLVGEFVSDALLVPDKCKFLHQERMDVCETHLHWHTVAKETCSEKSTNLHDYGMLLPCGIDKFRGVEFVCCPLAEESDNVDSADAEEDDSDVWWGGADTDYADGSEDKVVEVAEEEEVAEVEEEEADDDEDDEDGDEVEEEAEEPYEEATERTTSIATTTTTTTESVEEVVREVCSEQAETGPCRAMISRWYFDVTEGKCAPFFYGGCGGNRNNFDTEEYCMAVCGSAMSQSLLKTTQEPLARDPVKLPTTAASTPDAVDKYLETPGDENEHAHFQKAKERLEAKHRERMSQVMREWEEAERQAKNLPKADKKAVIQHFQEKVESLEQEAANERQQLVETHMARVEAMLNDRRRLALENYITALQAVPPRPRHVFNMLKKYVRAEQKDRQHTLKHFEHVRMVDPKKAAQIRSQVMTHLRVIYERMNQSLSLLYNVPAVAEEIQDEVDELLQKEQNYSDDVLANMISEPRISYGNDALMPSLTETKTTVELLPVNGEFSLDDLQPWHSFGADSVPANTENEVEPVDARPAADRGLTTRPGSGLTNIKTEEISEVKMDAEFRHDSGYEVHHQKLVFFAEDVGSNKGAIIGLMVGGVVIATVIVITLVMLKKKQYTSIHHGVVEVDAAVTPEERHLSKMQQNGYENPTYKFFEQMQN

[4] = target: T3, Amyloid-beta precursor protein; experiment: Inhibition of amyloid beta 42 (unknown origin) aggregation at 80 uM relative to control
Acetylcholinesterase [5] = target: Acetylcholinesterase (Torpedo californica, UniProt P04058); experiment: Inhibition of pacific electric ray AChE; parameters: species or system Tetronarce californica
Sequence of Acetylcholinesterase (Torpedo californica, UniProt P04058) (P04058 whole entry): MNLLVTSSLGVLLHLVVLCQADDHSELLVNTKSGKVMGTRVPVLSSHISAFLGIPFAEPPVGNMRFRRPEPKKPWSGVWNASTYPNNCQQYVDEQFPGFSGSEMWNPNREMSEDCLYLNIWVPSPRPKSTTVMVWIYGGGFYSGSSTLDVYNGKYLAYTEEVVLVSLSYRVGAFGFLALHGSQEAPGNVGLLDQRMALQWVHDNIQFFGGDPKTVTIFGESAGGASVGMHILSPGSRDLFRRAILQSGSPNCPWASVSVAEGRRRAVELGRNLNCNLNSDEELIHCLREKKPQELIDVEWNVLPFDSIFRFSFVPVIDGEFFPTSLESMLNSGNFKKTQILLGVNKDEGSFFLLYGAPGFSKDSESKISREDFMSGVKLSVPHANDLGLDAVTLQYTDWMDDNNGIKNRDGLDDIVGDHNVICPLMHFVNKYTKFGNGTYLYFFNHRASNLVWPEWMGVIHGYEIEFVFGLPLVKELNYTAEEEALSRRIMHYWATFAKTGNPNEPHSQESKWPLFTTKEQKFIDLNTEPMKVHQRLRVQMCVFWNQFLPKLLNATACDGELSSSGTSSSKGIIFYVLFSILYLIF

Cholinesterase [6] = target: T4, Cholinesterase (Equus caballus, UniProt P81908); experiment: Inhibition of equine BChE incubated for 15 mins by Ellman's method
T4 sequence (P81908 whole entry): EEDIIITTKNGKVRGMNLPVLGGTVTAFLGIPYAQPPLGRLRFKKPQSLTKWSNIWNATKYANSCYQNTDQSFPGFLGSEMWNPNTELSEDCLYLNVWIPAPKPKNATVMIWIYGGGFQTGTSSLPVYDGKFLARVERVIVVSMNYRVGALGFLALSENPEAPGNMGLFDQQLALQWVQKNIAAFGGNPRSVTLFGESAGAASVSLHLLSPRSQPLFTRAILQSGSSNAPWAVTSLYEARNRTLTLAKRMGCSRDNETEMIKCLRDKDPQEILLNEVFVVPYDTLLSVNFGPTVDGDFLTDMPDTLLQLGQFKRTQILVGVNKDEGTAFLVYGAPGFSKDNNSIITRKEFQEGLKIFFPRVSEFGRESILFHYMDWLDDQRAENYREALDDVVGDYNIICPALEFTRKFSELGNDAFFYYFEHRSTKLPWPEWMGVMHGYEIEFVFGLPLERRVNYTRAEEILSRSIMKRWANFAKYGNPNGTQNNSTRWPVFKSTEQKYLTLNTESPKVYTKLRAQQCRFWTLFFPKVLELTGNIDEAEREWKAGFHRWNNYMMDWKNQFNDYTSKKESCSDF

[7] = target: T3, Amyloid-beta precursor protein; experiment: Inhibition of amyloid beta 42 (unknown origin) aggregation at 10 uM for 24 hrs by ThT fluorescence assay relative to control
[8] = target: T3, Amyloid-beta precursor protein; experiment: Inhibition of amyloid beta 42 (unknown origin) self aggregation incubated for 48 hrs by fluoroMax-4 spectrofluorometeric analysis
Cholinesterase [9] = target: T5, Cholinesterase (Homo sapiens, UniProt P06276); experiment: Inhibition of human recombinant BChE by Ellmans method preincubated for 5 mins followed by substrate addition measured every 2 mins
T5 sequence (P06276 whole entry): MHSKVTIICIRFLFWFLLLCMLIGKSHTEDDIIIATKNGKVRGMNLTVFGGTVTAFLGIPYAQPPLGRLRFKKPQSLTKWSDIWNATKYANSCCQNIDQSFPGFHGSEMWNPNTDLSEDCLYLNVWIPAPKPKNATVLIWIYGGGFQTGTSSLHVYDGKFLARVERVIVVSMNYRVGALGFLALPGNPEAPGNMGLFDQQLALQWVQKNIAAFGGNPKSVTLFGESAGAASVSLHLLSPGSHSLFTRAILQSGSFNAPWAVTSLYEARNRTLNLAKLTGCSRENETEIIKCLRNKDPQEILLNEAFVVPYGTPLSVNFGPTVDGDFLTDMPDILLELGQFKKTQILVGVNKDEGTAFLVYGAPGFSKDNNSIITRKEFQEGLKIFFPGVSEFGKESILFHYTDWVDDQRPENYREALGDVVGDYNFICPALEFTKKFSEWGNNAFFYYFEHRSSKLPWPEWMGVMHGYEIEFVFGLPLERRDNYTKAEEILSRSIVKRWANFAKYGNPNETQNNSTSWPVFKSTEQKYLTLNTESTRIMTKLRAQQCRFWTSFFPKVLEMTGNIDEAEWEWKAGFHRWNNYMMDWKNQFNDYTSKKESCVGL

Acetylcholinesterase [10] = target: T6, Acetylcholinesterase (Homo sapiens, UniProt P22303); experiment: Inhibition of human recombinant AChE preincubated for 5 mins followed by substrate addition measured every 2 mins by Ellmans method
T6 sequence (P22303 whole entry): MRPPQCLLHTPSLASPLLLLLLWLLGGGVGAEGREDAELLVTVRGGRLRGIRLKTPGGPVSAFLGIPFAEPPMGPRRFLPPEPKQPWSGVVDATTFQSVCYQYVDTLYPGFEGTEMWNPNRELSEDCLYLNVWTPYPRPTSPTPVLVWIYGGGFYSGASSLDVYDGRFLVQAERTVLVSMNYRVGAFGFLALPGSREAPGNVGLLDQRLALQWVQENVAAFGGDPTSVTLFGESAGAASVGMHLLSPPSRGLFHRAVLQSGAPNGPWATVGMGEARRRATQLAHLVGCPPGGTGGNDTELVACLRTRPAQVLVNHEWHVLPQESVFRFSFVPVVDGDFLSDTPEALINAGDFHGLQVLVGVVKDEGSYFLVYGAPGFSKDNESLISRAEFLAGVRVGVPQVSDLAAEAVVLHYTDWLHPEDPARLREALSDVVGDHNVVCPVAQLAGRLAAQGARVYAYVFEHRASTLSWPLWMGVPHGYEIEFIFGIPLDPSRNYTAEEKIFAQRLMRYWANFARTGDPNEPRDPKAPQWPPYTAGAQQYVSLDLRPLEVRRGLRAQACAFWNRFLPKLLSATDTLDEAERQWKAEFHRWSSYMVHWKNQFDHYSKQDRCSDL

[11] = target: T3, Amyloid-beta precursor protein; experiment: Inhibition of amyloid beta 42 (unknown origin) aggregation at 100 uM relative to control
Cholinesterase [12] = target: T5, Cholinesterase; experiment: Inhibition of human BChE
Acetylcholinesterase [13] = target: T6, Acetylcholinesterase; experiment: Inhibition of human AChE
Acetylcholinesterase [14] = target: T6, Acetylcholinesterase; experiment: Inhibition of human AChE by Ellmans method
Beta-secretase 1 [15] = target: T2, Beta-secretase 1; experiment: Inhibition of BACE1 (unknown origin) by FRET-based fluorescent analysis
Cholinesterase [16] = target: T5, Cholinesterase; experiment: Inhibition of human BChE by Ellmans method
[17] = target: T3, Amyloid-beta precursor protein; experiment: Inhibition of amyloid beta 42 (unknown origin) aggregation at 50 uM by Thioflavin T-based fluorescence assay relative to control
Acetylcholinesterase [18] = target: T6, Acetylcholinesterase; experiment: Inhibition of human erythrocyte AChE using […] as substrate preincubated for 5 mins followed by substrate addition measured Ellmans method
[19] = target: T3, Amyloid-beta precursor protein; experiment: Inhibition of amyloid beta 1 to 42 (unknown origin) aggregation at 10 uM for 24 hrs by ThT fluorometric assay relative to control
[20] = target: T3, Amyloid-beta precursor protein; experiment: Inhibition of amyloid beta 42 (unknown origin) aggregation at 1 mM for 12 hrs relative to control
Cholinesterase [21] = target: T5, Cholinesterase; experiment: Inhibition of human recombinant BChE expressed in HEK293 cells using butyrylthiocholine as substrate incubated for 120 mins by Ellman's method
Acetylcholinesterase [22] = target: T6, Acetylcholinesterase; experiment: Inhibition of human recombinant AChE expressed in HEK293 cells using acetylthiocholine as substrate incubated for 120 mins by Ellman's method
Beta-secretase 1 [23] = target: T2, Beta-secretase 1; experiment: Inhibition of BACE1 (unknown origin) at 50 uM by FRET assay relative to control
Acetylcholinesterase [24] = target: T1, Acetylcholinesterase; experiment: Inhibition of electric eel AChE using acetylthiocholine iodine as substrate by Ellman's method
[25] = target: T3, Amyloid-beta precursor protein; experiment: Inhibition of amyloid beta 1 to 42 (unknown origin) aggregation at 50 uM by ThT binding assay relative to control
Cholinesterase [26] = target: T4, Cholinesterase; experiment: Inhibition of equine BChE using butyrylthiocholine as substrate by Ellman's method
[27] = target: T3, Amyloid-beta precursor protein; experiment: Inhibition of amyloid beta 42 (unknown origin) aggregation at 25 uM by Thioflavin T-based fluorescence assay relative to control
Acetylcholinesterase [28] = target: T1, Acetylcholinesterase; experiment: Inhibition of electric eel AchE using acetylthiocholine as substrate by Ellman's method
[29] = target: T3, Amyloid-beta precursor protein; experiment: Inhibition of amyloid beta 42 (unknown origin) aggregation at 50 uM for 24 hrs by thioflavin T fluorescence method relative to control
Acetylcholinesterase [30] = target: T6, Acetylcholinesterase; experiment: Inhibition of human recombinant AChE by spectrophotometer based Ellman's method
[31] = target: T3, Amyloid-beta precursor protein; experiment: Inhibition of amyloid beta 1 to 42 (unknown origin) self induced aggregation at 25 uM by ThT fluorescence assay relative to control
Acetylcholinesterase [32] = target: T7, Acetylcholinesterase (Rattus norvegicus, UniProt P37136); experiment: Inhibition of rat cortex homogenate AChE by Ellman's method; format: tissue-based
T7 sequence (P37136 whole entry): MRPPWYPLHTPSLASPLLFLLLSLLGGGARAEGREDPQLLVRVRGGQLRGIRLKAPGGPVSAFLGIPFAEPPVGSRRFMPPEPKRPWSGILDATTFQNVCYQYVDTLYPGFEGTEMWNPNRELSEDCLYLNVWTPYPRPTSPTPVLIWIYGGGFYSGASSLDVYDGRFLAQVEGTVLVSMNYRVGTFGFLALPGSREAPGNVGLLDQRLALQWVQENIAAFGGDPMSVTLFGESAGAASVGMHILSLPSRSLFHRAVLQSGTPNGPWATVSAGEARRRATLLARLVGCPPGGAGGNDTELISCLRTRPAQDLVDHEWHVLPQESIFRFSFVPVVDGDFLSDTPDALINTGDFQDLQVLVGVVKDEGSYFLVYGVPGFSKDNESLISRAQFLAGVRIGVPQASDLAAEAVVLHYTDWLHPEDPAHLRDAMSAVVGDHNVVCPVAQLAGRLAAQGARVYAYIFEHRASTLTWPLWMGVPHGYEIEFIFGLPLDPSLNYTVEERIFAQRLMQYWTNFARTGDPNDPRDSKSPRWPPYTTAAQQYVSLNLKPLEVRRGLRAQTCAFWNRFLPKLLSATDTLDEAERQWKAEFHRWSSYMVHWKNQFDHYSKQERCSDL

[33] = target: T3, Amyloid-beta precursor protein; experiment: Inhibition of amyloid beta 42 (unknown origin) self aggregation at 25 uM by ThT fluorometric assay relative to control

T1 sequence (O42275 whole entry): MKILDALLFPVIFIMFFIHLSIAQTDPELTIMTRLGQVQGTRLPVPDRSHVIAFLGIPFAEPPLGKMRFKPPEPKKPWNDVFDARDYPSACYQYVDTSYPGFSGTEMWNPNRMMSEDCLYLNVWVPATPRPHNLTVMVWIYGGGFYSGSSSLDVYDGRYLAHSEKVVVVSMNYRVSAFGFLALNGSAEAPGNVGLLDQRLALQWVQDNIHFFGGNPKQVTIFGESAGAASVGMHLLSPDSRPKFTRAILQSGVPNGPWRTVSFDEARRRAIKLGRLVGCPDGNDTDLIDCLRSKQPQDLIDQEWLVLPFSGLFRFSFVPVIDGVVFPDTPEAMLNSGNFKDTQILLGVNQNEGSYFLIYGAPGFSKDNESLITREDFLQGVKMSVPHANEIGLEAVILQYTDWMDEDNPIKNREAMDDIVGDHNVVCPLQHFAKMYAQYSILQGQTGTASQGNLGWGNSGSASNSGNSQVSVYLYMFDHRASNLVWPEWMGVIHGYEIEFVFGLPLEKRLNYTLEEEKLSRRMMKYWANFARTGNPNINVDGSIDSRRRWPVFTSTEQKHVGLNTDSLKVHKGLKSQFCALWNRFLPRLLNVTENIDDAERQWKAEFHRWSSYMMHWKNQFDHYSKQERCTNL

SMILES: O=C(Nc1ccc(Oc2ccc3ccc(=O)oc3c2)cc1)c1cc(-c2cccc([N+](=O)[O-])c2)on1
IC50 (Acetylcholinesterase [1]): 1.23 µM
inhibition (Beta-secretase 1 [2]): 48.5%

inhibition [3]: 71.1%
SMILES: O=C(CCCN(Cc1ccccn1)Cc1ccccn1)NCCCNc1c2c(nc3ccccc13)CCCC2

SMILES: COc1cccc2cc(C(=O)NCCCNc3c4c(nc5cc(Cl)ccc35)CCCC4)oc12
inhibition [4]: 57.8%
IC50 (Acetylcholinesterase [5]): 0.13 µM

SMILES: CN(C)/C=C/C(=O)c1cc2ccc(OCc3cn(Cc4ccc(F)c(F)c4)nn3)cc2oc1=O
IC50 (Cholinesterase [6]): 21.7 µM
inhibition [7]: 32.6%

SMILES: O=C(NCCCNc1c2c(nc3cc(Cl)ccc13)CCCC2)c1nc2ccc([N+](=O)[O-])cc2s1
IC50 [8]: 3.8 µM
IC50 (Cholinesterase [9]): 4660 µM
IC50 (Acetylcholinesterase [10]): 0.018 µM

SMILES: COC(=O)c1cc(C(=O)c2ccc(OC)cc2)n2ccc(CCCc3cc[n+](C)cc3)cc12
inhibition [11]: 55%
IC50 (Cholinesterase [12]): 38.9 µM
IC50 (Acetylcholinesterase [13]): 3.3 µM

SMILES: FC(F)(F)c1ccc(-c2nnc(CNC3CCN(Cc4ccccc4)C3)o2)cc1 (stereo not given)
IC50 (Acetylcholinesterase [14]): 0.064 µM
IC50 (Beta-secretase 1 [15]): 0.143 µM
IC50 (Cholinesterase [16]): 0.074 µM

SMILES: O=c1nc2sc3ccccc3n2c2ncccc12
inhibition [17]: 30.8%
IC50 (Acetylcholinesterase [18]): 2.78 µM

inhibition [19]: 60.7%
SMILES: O=S(=O)(NCC1CCN(Cc2ccccc2)CC1)c1ccc(-c2ccccc2)cc1

SMILES: O=C(C[n+]1ccc2ccccc2c1)Nc1ccccc1Br
inhibition [20]: 18%
IC50 (Cholinesterase [21]): 12 µM
IC50 (Acetylcholinesterase [22]): 13 µM

SMILES: COc1ccc(/C=C/C(=O)NCCc2cc3ccccc3[nH]2)cc1OC
inhibition (Beta-secretase 1 [23]): 40.7%
IC50 (Acetylcholinesterase [24]): 11.5 µM
inhibition [25]: 10.1%

SMILES: CCc1cc(-c2nnc(Nc3ccccc3Cl)s2)c(O)cc1O
IC50 (Cholinesterase [26]): 18.3 µM
inhibition [27]: 55.8%
IC50 (Acetylcholinesterase [28]): 0.031 µM

SMILES: CC1=C(NC2CCN(Cc3ccccc3)CC2)C(=O)c2ccccc2C1=O
inhibition [29]: 52%
IC50 (Acetylcholinesterase [30]): 47.5 µM

SMILES: CCN(CCCCCCOc1ccc(/C=C/C(=O)c2c(O)cc(OC)c(O)c2OC)cc1)Cc1ccccc1OC
inhibition [31]: 78%
IC50 (Acetylcholinesterase [32]): 0.41 µM

SMILES: O=C(/C=C/c1cccs1)N1CCc2ccccc2C1
IC50 (Cholinesterase [16]): 2.5 µM
IC50 (Acetylcholinesterase [1]): 19.4 µM
inhibition [33]: 65.2%
